Measurements published in the METLIN SMRT retention time set (Domingo-Almenara et al. 2019).

Assay: gradient 5% acetonitrile 3 min, to 50% in 2 min, to 85% in 15 min, held 3 min, 100 µL/min
Conditions: column: Zorbax Extend-C18 2.1 x 50 mm; eluents: water / acetonitrile, 0.1% formic acid
Summary of the method: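 Retention times come from adduct peaks that were picked computationally and then checked by hand. The standards, pure and pooled in mixtures of ~100 molecules, were run on a Zorbax Extend-C18 column (2.1 × 50 mm, 1.8 μm) at 100 μL/min with water and acetonitrile, each with 0.1% formic acid. Detection was by quadrupole time-of-flight mass spectrometry in positive and negative ionization mode, with a dead volume of 40 μL and a dwell volume of 900 μL.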

Work on `CCN1CCN(c2ncc(N3CCC(C(=O)NCCN4CCCCC4C)CC3)cn2)CC1` (stereo not drawn) yielded an RP-LC retention time of 537 s.
With `CCOc1ccc2nc(NC(=O)C3CCN(S(=O)(=O)c4cn(C)c(C)n4)CC3)sc2c1` the RP-LC retention time was 772 s.
`Cc1ccc(Cn2c(=O)c(N3CCC(NC(=O)NCC4CCCO4)CC3)nc3cccnc32)cc1` (stereo not drawn) gave an RP-LC retention time of 929 s.
`Cc1nn(C(=O)C(C)(C)C)c(C)c1S(=O)(=O)N1CCCC1` showed an RP-LC retention time of 1180 s.
Compound `Cn1c(N2CCCC(C(=O)NC3CCCCCC3)C2)cc(=O)n(C)c1=O` (stereo not drawn) has an RP-LC retention time of 715 s.
With `CCn1c(N2CCCC(C(=O)NCc3cccc(OC)c3)C2)cc(=O)n(C)c1=O` (stereo not drawn) the RP-LC retention time was 764 s.
For `Cc1ccccc1N1CCN(C(=O)CCC2CCN(c3cc(NC4CC4)ncn3)CC2)CC1`, the RP-LC retention time was 768 s.
Compound `CCc1ccc2oc(C(=O)NCC(c3ccccc3OC)N(C)C)cc(=O)c2c1` (stereo not drawn) has an RP-LC retention time of 659 s.
For `CCCC(=O)Nc1ccc(CCc2nc3ccc(C(=O)NCCC(C)C)cc3[nH]2)cc1`, the RP-LC retention time was 674 s.
`COc1cc(C(=O)NCC(=O)Nc2nc3ccccc3[nH]2)cc(OC)c1OC` showed an RP-LC retention time of 617 s.
`Cc1cc(N2CCN(C(=O)c3cccc(N(C)C)c3)CC2)nc2nnc(C)n12` showed an RP-LC retention time of 557 s.
For `CCCn1nc(CNC(=O)CNC(C)=O)c2ccccc21`, the RP-LC retention time was 632 s.
`Cc1ccccc1CN1C[C@@H]2C(=O)N(C)C(=O)[C@@H]2C1` showed an RP-LC retention time of 585 s.
`CCN1CCN(CCNC(=O)CN2C(=O)CSc3cccn3-c3ccccc32)CC1` showed an RP-LC retention time of 600 s.
With `Cc1ccc(NC(=O)C2CCc3nc(N4CCOCC4)ncc3C2)c(F)c1` (stereo not drawn) the RP-LC retention time was 731 s.
With `COc1cc([C@@H]2c3cc4c(cc3[C@H](O)[C@@H](CO)[C@@H]2C(=O)NCc2ccccc2)OCO4)cc(OC)c1OC` the RP-LC retention time was 700 s.
Work on `Cc1nc(-c2cccnc2)nc2c1CCC(=O)N2Cc1ccco1` yielded an RP-LC retention time of 681 s.
With `COc1ccc(NC(=O)c2nnc(CSCC(=O)NCCc3c[nH]c4ccccc34)s2)cc1` the RP-LC retention time was 859 s.
Work on `Cc1ccc(-c2cc3c4nnc(CCC(=O)NCc5ccccc5C(F)(F)F)n4ccn3n2)cc1C` yielded an RP-LC retention time of 952 s.
Work on `O=C(NCc1ccc(F)cc1F)c1ccc2c(c1)nc1n2CCN(c2ccccc2)C1=O` yielded an RP-LC retention time of 781 s.
With `Brc1ccc2nc(N3CCNCC3)sc2c1` the RP-LC retention time was 557 s.
Work on `CCN(CC)C(=O)c1ccc(-c2nc3cc(NS(=O)(=O)c4ccc(C)cc4)ccc3n2C)cc1` yielded an RP-LC retention time of 700 s.
`COc1ccc2c(c1)C(OC(C)C)=C(C(N)=O)S2=O` (stereo not drawn) showed an RP-LC retention time of 623 s.
Compound `CCCOc1nccnc1NC1CCN(C(=O)c2ccnn2C)CC1` has an RP-LC retention time of 706 s.
`Cc1nc(CC(=O)Nc2nc(-c3ccc(F)cc3)c(C)s2)cs1` gave an RP-LC retention time of 894 s.
Work on `CN1CCN(C2=Cc3ccccc3Oc3ccc(Cl)cc32)CC1` yielded an RP-LC retention time of 818 s.
For `Cc1ccc(Nc2nc(N3CCN(c4ncccn4)CC3)nc3c2C(=O)CCC3)cc1`, the RP-LC retention time was 1220 s.
With `O=C(Cn1nc(C(=O)N2CCOCC2)c2ccccc21)N1CCN(c2ccccn2)CC1` the RP-LC retention time was 594 s.
For `O=c1c(=O)n(Cc2nc(-c3ccc4c(c3)OCO4)no2)ccn1Cc1ccc(Cl)cc1`, the RP-LC retention time was 879 s.
Compound `Cc1ccc(S(=O)(=O)N2CCCCC2)cc1-c1nnc(-c2ccccc2)o1` has an RP-LC retention time of 1130 s.
Compound `CCCNC(=O)C1CCCN(c2ccc(SCC(=O)Nc3cc(C)cc(C)c3)nn2)C1` (stereo not drawn) has an RP-LC retention time of 721 s.
In the case of `CCCn1ncc(N2CCC(C(=O)N(C)Cc3cn(C)nc3C)CC2)cc1=O`, the RP-LC retention time is reported as 619 s.
Compound `O=C(NCC(O)c1ccc(C(F)(F)F)cc1)C(c1ccccc1)c1ccccc1` (stereo not drawn) has an RP-LC retention time of 938 s.
`COc1ccc(Cc2nc3nccc(-c4ccccn4)n3n2)cc1` showed an RP-LC retention time of 768 s.
`CCC(CC)NC(=O)[C@@H]1[C@H](c2cc(OC)c(OC)c(OC)c2)c2cc3c(cc2[C@H](O)[C@H]1CO)OCO3` gave an RP-LC retention time of 692 s.
Work on `COc1ccc(S(=O)(=O)N2CCCC2)cc1C(=O)NC1CCS(=O)(=O)C1` (stereo not drawn) yielded an RP-LC retention time of 629 s.
For `O=C1NC2(CCN(C(=O)Nc3ccccc3F)CC2)N=C1c1cccc(Cl)c1`, the RP-LC retention time was 839 s.
For `CCc1ccc(C2=C(C)C(N3CCCN(C(=O)NCCC(C)C)CC3)=NS2(=O)=O)cc1`, the RP-LC retention time was 926 s.
Work on `CCCn1cc(S(=O)(=O)Nc2cccc(Cl)c2)c2cccnc21` yielded an RP-LC retention time of 942 s.
`COc1ccc(-c2nnc(-c3ccc(Cl)c(S(=O)(=O)N4CCCCC4)c3)o2)cc1` gave an RP-LC retention time of 1100 s.
In the case of `Cc1oc(C2CCC2)nc1C(=O)N1CCN(Cc2ccc3c(c2)OCO3)CC1`, the RP-LC retention time is reported as 583 s.
`CC1CCCN(CCCNC(=O)CCCn2c3ccccc3c3cnn(C)c(=O)c32)C1` (stereo not drawn) showed an RP-LC retention time of 626 s.
Compound `Cc1ccc(CN2CCCn3nc(C(=O)NCCCN4CCOCC4)cc3C2=O)cc1` has an RP-LC retention time of 618 s.
For `O=C(NCCOc1ccc(F)cc1)C(c1ccccc1)n1cccc1` (stereo not drawn), the RP-LC retention time was 927 s.
Work on `Cc1ccc(-n2ccc(=O)c(-c3nc(-c4ccc5c(c4)OCO5)no3)n2)cc1` yielded an RP-LC retention time of 893 s.
`COc1ccc(-c2cc3nn(CC(=O)N4CCCC(C)C4)c(=O)n3c(C)n2)cc1` (stereo not drawn) gave an RP-LC retention time of 902 s.
`CCOc1ccc(NC(=O)C2CCCN(S(=O)(=O)c3cc(-c4noc(C)n4)cs3)C2)cc1` (stereo not drawn) gave an RP-LC retention time of 982 s.
Compound `CCCNC(=O)c1cc(-c2ccccc2)cn1C` has an RP-LC retention time of 910 s.
Work on `CCc1ccc(N2CC(c3noc(-c4ccccn4)n3)CC2=O)cc1` (stereo not drawn) yielded an RP-LC retention time of 829 s.
Work on `O=C(NCCCc1ccccc1)c1nnc(-c2ccc(S(=O)(=O)N3CCCC3)cc2)o1` yielded an RP-LC retention time of 971 s.
`CCCn1cnc2cc(CNC(=O)Cc3cccc(Cl)c3)ccc21` gave an RP-LC retention time of 670 s.
Work on `COc1ccc(Cn2c(C)c(CNCc3cccnc3)c(C(=O)O)c2C)cc1` yielded an RP-LC retention time of 597 s.
For `Cn1nc(-c2nnc(-c3ccc(F)cc3)o2)c2c1CCN(S(=O)(=O)c1cc(F)cc(F)c1)C2`, the RP-LC retention time was 922 s.
Work on `COc1ccc(C(=O)N2CCc3ccc(C(=O)NCc4ccco4)cc32)cc1` yielded an RP-LC retention time of 795 s.
Compound `COc1ccc(-c2noc(CC3CCN(C(=O)c4cncc(Br)c4)CC3)n2)cc1` has an RP-LC retention time of 909 s.
For `COc1ccc(CNC(=O)C2CCN(c3cnc4nccnc4c3)CC2)cc1`, the RP-LC retention time was 664 s.
With `Cn1cccc1C(=O)C(=O)N1CCN(C(c2ccccc2)c2ccccc2)CC1` the RP-LC retention time was 824 s.
Compound `Cc1noc(-c2cccc(OC3CN(C(=O)Cc4ccccc4)C3)c2)n1` has an RP-LC retention time of 854 s.
For `Cc1cc(S(=O)(=O)N2CCc3c(c(-c4nnc(-c5ccccc5F)o4)nn3C)C2)ccc1F`, the RP-LC retention time was 988 s.
Compound `Cc1ccc(C(=O)N2CCC(n3c(-c4ccco4)nc4cccnc43)C2)cc1C` (stereo not drawn) has an RP-LC retention time of 806 s.
For `Cc1nc(-c2csc(S(=O)(=O)N3CCC(C(=O)NCc4cccs4)CC3)c2)no1`, the RP-LC retention time was 823 s.
`CCOC(=O)N1CCC(NC(=O)C2(c3ccc(F)cc3)CC2)CC1` gave an RP-LC retention time of 796 s.
For `Cc1ccc(CNC(=O)c2cc(C(C)C)n3nccc3n2)cc1`, the RP-LC retention time was 1250 s.
In the case of `Cn1nc(-c2nnc(-c3ccccc3)o2)c2c1CCN(S(=O)(=O)c1ccc(C#N)cc1)C2`, the RP-LC retention time is reported as 897 s.
`CCNC(=O)N1CCCC(c2cccc(C(=O)NCCC3=CCCCC3)c2)C1` (stereo not drawn) gave an RP-LC retention time of 906 s.
Work on `Cc1ccc(S(=O)(=O)N2CC3CN(C(=O)c4ccc5c(c4)OCO5)CC(C2)O3)cc1` yielded an RP-LC retention time of 804 s.
For `COc1ccc(C2CCCN2C(=O)Cc2cccs2)cc1` (stereo not drawn), the RP-LC retention time was 875 s.
Work on `Cc1ccc(NC(=O)NCCn2c(-c3ccncc3)nc3cccnc32)cc1Cl` yielded an RP-LC retention time of 666 s.
For `COc1ccccc1NC(=O)C1CCN(S(=O)(=O)c2cc(-c3noc(C4CC4)n3)cs2)CC1`, the RP-LC retention time was 1020 s.
`Fc1cc(F)c2nc(NCc3ccco3)sc2c1` gave an RP-LC retention time of 879 s.
With `CC(=O)N1CCc2cc(C)c(S(=O)(=O)NC3CC3)cc21` the RP-LC retention time was 709 s.
Work on `CC(=O)N1c2ccc(S(=O)(=O)N3CCOCC3)cc2CC1C(=O)N1CCCCC1` (stereo not drawn) yielded an RP-LC retention time of 697 s.
With `O=C(NCc1ccccn1)C1CCN(c2cc(N3CCSCC3)ncn2)CC1` the RP-LC retention time was 559 s.
Compound `Cc1ccc(N2CN(CC(=O)Nc3ccccc3C)S(=O)(=O)c3cccnc32)cc1` has an RP-LC retention time of 813 s.
Work on `COCCC(=O)N1CC2CN(S(=O)(=O)c3ccc(C)cc3)CC(C1)O2` yielded an RP-LC retention time of 684 s.
Work on `Cc1onc(-c2ccccc2Cl)c1C(=O)NC1CC(=O)N(C2CC2)C1` (stereo not drawn) yielded an RP-LC retention time of 636 s.
`Cc1ccc(-c2noc(-c3nc(C4CC4)no3)n2)cc1` gave an RP-LC retention time of 1160 s.
Work on `O=c1[nH]c2ccc(NCc3ccc(-c4ccccc4F)o3)cc2[nH]1` yielded an RP-LC retention time of 687 s.
`O=C(Cn1cnc2nc(N3CCC(C(=O)NC4CC4)CC3)sc2c1=O)NCC1CCCO1` (stereo not drawn) showed an RP-LC retention time of 589 s.
In the case of `O=C(CN1C(=O)CCC1=O)NC1CCCC(OC(=O)Nc2ccc(F)cc2)C1` (stereo not drawn), the RP-LC retention time is reported as 674 s.
Work on `O=C(CCC1NC(=O)c2ccccc2NC1=O)Nc1ncn[nH]1` (stereo not drawn) yielded an RP-LC retention time of 521 s.
`O=C(NC1CCCCC1)C1CCCN(c2nc3ccsc3c(=O)n2Cc2ccc(F)cc2)C1` (stereo not drawn) showed an RP-LC retention time of 972 s.
`CC(C)C(=O)Nc1ccc(-n2cnc(C(=O)N3CCN(C4CCCCC4)CC3)c2)nc1` showed an RP-LC retention time of 601 s.
In the case of `COC(=O)c1ccc(Oc2cc(C)nc(-n3nc(C)cc3C)n2)cc1`, the RP-LC retention time is reported as 912 s.
`CCN1CCCn2cc(S(=O)(=O)N(C)c3ccc(C)cc3)cc2C1=O` gave an RP-LC retention time of 756 s.
Compound `O=C(NC1CC1)[C@@H]1C[C@H](Oc2ccccc2)CN1C(=O)c1n[nH]c(=O)c2ccccc12` has an RP-LC retention time of 685 s.
`Cc1nc(C(=O)Nc2ccc(F)c(Cl)c2)c(C)o1` gave an RP-LC retention time of 958 s.
With `CCN1CCN(CCNC(=O)Cn2ccc3c(C)nn(CC)c3c2=O)CC1` the RP-LC retention time was 557 s.
